Assay results from patent US20020169209A1, “Potentiation of therapeutic effects of fatty acids” (priority 2001, published 2002).

Legend:
[1] = tested on: forgetfulness, possibly developing Alzheimer's disease (AD); assay: Case history: forgetful person, possible Alzheimer's disease; type: in vivo, human; details: one patient; indomethacin alone over six months or so
Experimental: A person had become very forgetful and their family was concerned that they might be developing Alzheimer's disease (AD). Because there is evidence that the NSAID indomethacin may be able to slow down the progression of AD, their child, who was a doctor, prescribed indomethacin. […] Because of animal work on the beneficial effects of AA in the aging rat brain, 800 mg of AA in triglyceride form was added to the treatment regime.

[2] = tested on: depression; assay: Case history: person seriously depressed for over 10 years; type: in vivo, human; details: one patient; ibuprofen alone
Experimental: Because there is evidence of elevated formation of prostaglandins in depression, they were given a combined COX-1 and COX-2 inhibitor, ibuprofen. […] The ibuprofen was stopped and they were treated with ethyl-eicosapentaenoate at a dose of 1 g/day. This seemed to have a modest effect but they remained far from well.

Row | SMILES | effect on forgetfulness [1] | effect on depression [2]
1 | COc1ccc2c(c1)c(CC(=O)O)c(C)n2C(=O)c1ccc(Cl)cc1 [indomethacin] | may have had a slight effect but there was no dramatic change | 
2 | CC(C)Cc1ccc(C(C)C(=O)O)cc1 (centres unmarked) [ibuprofen] |  | marginal effect but this was not apparent to observers
